Like-named read-outs stand apart in the source and are kept apart here.
What was measured:
[1] = test system: thoracodorsal arteries (TDA)
[2] = test system: thoracodorsal arteries (TDA); assay: Pressure myography of TDAs electroporated with Panx1 WT or YLK>AAA plasmid; format: cell-based, mouse; conditions: for EC50: Mus musculus, read-out: EC50 of phenylephrine-induced constriction
Procedure: The contractile responses of pressurized thoracodorsal arteries (TDA) were measured as previously described. Briefly, TDA were isolated and placed in cold Krebs-HEPES until cannulation in a pressure arteriograph (Danish MyoTechnology). After a 30 minute equilibration period, cumulative concentrations of contractile agonists were applied to the TDA pressurized at 80 mmHg, and the vessel was visualized with an Olympus IX-71 microscope attached to a Hamamatsu EM-CCD camera coupled to Slidebook imaging software. […] Lastly, maximal diameter was measured at the end of each experiment in calcium-free Krebs-HEPES supplemented with EGTA (1 mmol/L) and sodium nitroprusside (10 μmol/L). In cases where the vessels were not constricting to the contractile agonist, their viability was assessed by applying 40 mM KCl and only TDA reaching 30% of the maximal diameter were considered for analysis. The contractile responses, as well as the basal tone, are expressed as a percentage of the maximal diameter.
Vessel transfection was performed as previously described by us. Briefly, after isolation, TDA were placed in cold, sterile RPMI supplemented with penicillin […] (Gibco), CaCl2 (2 mmol/L) and 1% BSA. Vessels were transferred to a cuvette containing 100 μL of Nucleofector solution (Lonza) containing 5 μg of plasmid, and subjected to electroporation. Arteries were then placed in supplemented RPMI media in an incubator for 14 to 18 hours until cannulation in the pressure arteriograph as described above.
We further tested the importance of the YLK sequence within the intracellular loop of Panx1 on phenylephrine-induced vasoconstriction using rescue experiments with intact arteries from mice lacking endogenous Panx1. We reintroduced Panx1 into the SMCs of TDAs from Cre^+/Panx1^F1 mice that had received tamoxifen by selectively transfecting these cells with a plasmid encoding Panx1^WT.

[3] = test system: thoracodorsal arteries (TDA); assay: tissue or blood; conditions: Mus musculus
[4] = test system: abdominal aortic rings; assay: Wire myography of abdominal aortic rings; format: cell-based, mouse; conditions: for EC50: Mus musculus, read-out: EC50 of phenylephrine, aortic ring contraction
[5] = test system: resistance arterioles; assay: Diameter of resistance arterioles isolated from adipose tissue of hypertensive subjects; format: cell-based, human; conditions: arterioles from treatment resistant hypertension patients
Source text: The resistance arterioles were isolated from adipose tissue. Treatment resistant hypertension: >3 continue to have high blood pressure.

[6] = target: T1, Panx1 (Mus musculus, UniProt Q9JIP4); assay: ATP release from HEK293 cells cotransfected with mPanx1 and α1DAR; format: cell-based; conditions: peptide 3 μmol/L, phenylephrine 100 μmol/L
T1 construct: we progressively substituted amino acids in this region of full-length Panx1 with alanine residues; HA; expressed in transfected cells; host or cells: HEK293T cells, transient co-transfection with alpha1DAR plasmid (Origene, NM_013460, C-terminal Myc-DDK)
T1 sequence (Q9JIP4 whole entry): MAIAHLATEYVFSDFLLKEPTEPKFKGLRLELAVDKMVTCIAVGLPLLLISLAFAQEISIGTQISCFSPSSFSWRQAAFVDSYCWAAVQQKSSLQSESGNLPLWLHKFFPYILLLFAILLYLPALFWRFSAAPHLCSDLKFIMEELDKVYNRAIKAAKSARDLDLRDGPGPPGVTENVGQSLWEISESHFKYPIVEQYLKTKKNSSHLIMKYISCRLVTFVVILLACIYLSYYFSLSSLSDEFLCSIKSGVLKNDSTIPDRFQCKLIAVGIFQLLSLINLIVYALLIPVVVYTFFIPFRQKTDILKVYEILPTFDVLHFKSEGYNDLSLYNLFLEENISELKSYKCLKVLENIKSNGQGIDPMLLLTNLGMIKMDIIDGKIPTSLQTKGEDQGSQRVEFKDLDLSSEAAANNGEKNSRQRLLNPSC
Procedure: Human Embryonic Kidney (HEK) 293T cells were cultured as previously described, and were used until passage 20. For ATP measurements, 50,000 cells/well were seeded in 24 well plates pre-coated with 0.01% poly-L-lysine, and transfected using Lipofectamine 2000 (Invitrogen) according to the manufacturer protocol. Briefly, 0.4 μg of α1DAR and 0.4 μg of Panx1^WT, Panx1^KYP>AAA, Panx1^IVEQ>AAA or Panx1^YLK>AAA plasmids were added to each well along with 2 μl of Lipofectamine 2000. For electrophysiology measurements, 4 μg of α1DAR plasmid, 2 μg of Panx1^WT, Panx1^KYP>AAA, Panx1^IVEQ>AAA or Panx1^YLK>AAA plasmids, and 0.5 μg of GFP plasmid were mixed with 10 μl Lipofectamine 2000 and added to a well of 6-well plate seeded with ˜70% confluent HEK cells. Cells were split the next morning and plated onto a glass coverslip for recording. […]
The ectonucleotidase inhibitor ARL67156 (300 μmol/L) was applied to each well. […] The ATP concentration was measured by adding 50 μL of luciferin:luciferase reagent (ATP bioluminescence assay kit HSII; Roche), which was injected into each well and the luminescence was immediately recorded. Data are expressed as a percent increase in ATP concentration compared to unstimulated condition. […] Data were analyzed using a Kruskall Wallis test (non-parametric one-way ANOVA) followed by Dunn's post-hoc test.

[7] = TDAs from Cre^+/Panx1^FL with tamoxifen + Panx1^WT
[8] = TDAs from Cre^+/Panx1^FL with tamoxifen + Panx1^YLK>AAA
[9] = TDAs from Cre^+/Panx1^FL with tamoxifen, electroporated without plasmid
[10] = TDAs from Cre^+/Panx1^FL, no tamoxifen, electroporated without plasmid
[11] = aortic rings from Cre^+/Panx1^FL with tamoxifen
[12] = aortic rings from Cre^+/Panx1^FL, peanut oil

CNC[C@H](O)c1cccc(O)c1 [Phenylephrine, phenylephrine]
EMAX of agonist for TDA constriction ([1]; TDAs from Cre^+/Panx1^FL mice, tamoxifen-injected (SMC Panx1 knockout)): 69.1 ± 3.06 percentage of maximal diameter | EMAX of agonist for TDA constriction ([1]; TDAs from Cre^+/Panx1^FL mice, tamoxifen-injected (SMC Panx1 knockout), listed as phenylephrine): 69.1±3.06 percentage of maximal diameter | EMAX of agonist for TDA constriction ([1]; TDAs from Cre^+/Panx1^WT mice, tamoxifen-injected): 53.5 ± 4.91 percentage of maximal diameter | EMAX of agonist for TDA constriction ([1]; TDAs from Cre^−/Panx1^FL mice, tamoxifen-injected): 46.3 ± 5.94 percentage of maximal diameter | EMAX of agonist for TDA constriction ([1]; TDAs from Cre^−/Panx1^WT mice, tamoxifen-injected): 51.8 ± 2.66 percentage of maximal diameter | EMAX of agonist for TDA constriction ([1]; TDAs isolated from the three control genotypes): approximately 50 % of maximal diameter | EC50 [2, 7]: 450 ± 330 nM | EC50 [2, 8]: 630 ± 530 nM | EC50 [2, 9]: 1130 ± 770 nM | EC50 [2, 10]: 640 ± 230 nM | EMAX of phenylephrine-induced constriction [2, 7]: 34.2 ± 6.15 percentage of maximal diameter | EMAX of phenylephrine-induced constriction [2, 8]: 56.9 ± 5.84 percentage of maximal diameter | EMAX of phenylephrine-induced constriction [2, 9]: 57.5 ± 9.20 percentage of maximal diameter | EMAX of phenylephrine-induced constriction [2, 10]: 32.9 ± 4.85 percentage of maximal diameter | EC50 ([3]; read-out: EC50 of agonist for TDA constriction, TDAs from Cre^+/Panx1^FL mice, tamoxifen-injected (SMC Panx1 knockout)): 7840 ± 5600 nM | EC50 ([3]; read-out: EC50 of agonist for TDA constriction, TDAs from Cre^+/Panx1^WT mice, tamoxifen-injected): 1790 ± 1130 nM | EC50 ([3]; read-out: EC50 of agonist for TDA constriction, TDAs from Cre^−/Panx1^FL mice, tamoxifen-injected): 640 ± 370 nM | EC50 ([3]; read-out: EC50 of agonist for TDA constriction, TDAs from Cre^−/Panx1^WT mice, tamoxifen-injected): 660 ± 130 nM | EC50 [4, 11]: 3200 ± 320 nM | EC50 [4, 12]: 3390 ± 380 nM | EMAX of phenylephrine, aortic ring contraction [4, 11]: 343.4 ± 69.4 percentage of constriction to KCl | EMAX of phenylephrine, aortic ring contraction [4, 12]: 368.8 ± 78.7 percentage of constriction to KCl

KYPIVEQYLKYGRKKQRRR [IL2]
effect on hyperconstriction of resistance arterioles [5]: significantly reduces hyperconstriction | effect on phenylephrine-induced ATP release [6]: significantly decreased

scrambled intracellular loop 2 IYLYVEQKPY (SEQ ID NO: 7) linked with a TAT sequence [Scrambled IL2]
effect on phenylephrine-induced ATP release [6]: no effect

Reference: US10314883B2, “Compositions and methods for regulating blood pressure” (University of Virginia Patent Foundation, priority 2015, dated 2019)
